Test results from patent publication US12351564B2, “NLRP3 modulators” (Zomagen Biosciences Ltd, priority 2019, dated 2025).

Test system: IL-1b
Assay: Mouse BMDM IL-1b Assay
Type: cell-based
Settings: Macrophage; C57BL6 bone marrow derived macrophages; 200 ng/mL Ultrapure LPS-B5 3 hours, compound 30 minutes, 5 mM ATP 45 minutes; mouse IL-1b ELISA of supernatant
Description: Example 8: Mouse BMDM IL-1b Assay
Mouse bone marrow cells from C57BL6 tibia and femur were culture in complete Isocov's Media supplemented with 20 ng/mL MCSF (BMDM media) at a density of 50 million cells/15 cm Petri dish. Fresh media was changed every 3 days, and bone marrow derived macrophages were collected, washed, and counted on day 7. Cells were seeded into 96 well plates at a density of 5×10^4 cells per well in 100 uL of BMDM media and cultured overnight. The cells were stimulated at 37° C. with 200 ng/mL Ultrapure LPS-B5 for 3 hours before pre-diluted compounds were added. 30 minutes after compound addition, 5 mM ATP was added for the secondary stimulation for 45 minutes. After stimulation, the plates were briefly spun down, and 50 uL of supernatant was harvested from each well. ELISA for mouse IL-1b was performed with 1:10 and 1:100 diluted supernatant using pre-coated kits. IL-1b concentrations were calculated based on pre-titrated standards, and compound inhibition IC50 is generated using the Levenberg Marquardt damped lease-square method.

Row | Compound | IC50 [nM]
1 | CC(C)c1cccc(C(C)C)c1NC(=O)NS(=O)(=O)c1cc2c(o1)C1CCC(C1)C2(C)O (centres unmarked) [Compound 27, N((2,6-diisopropylphenyl)carbamoyl)-4-hydroxy-4-methyl-5,6,7,8-tetrahydro-4H-5,8-methanocyclohepta[b]furan-2-sulfonamide] | < 100
2 | C[C@]1(O)c2cc(S(=O)(=O)NC(=O)Nc3c4c(cc5c3CCC5)CCC4)oc2[C@H]2CC[C@@H]1C2 [Compound 40, (4R,5R,8S)-N-((1,2,3,5,6,7-hexahydro-s-indacen-4-yl)carbamoyl)-4-hydroxy-4-methyl-5,6,7,8-tetrahydro-4H-5,8-methanocyclohepta[b]furan-2-sulfonamide] | < 100
3 | O=C(Nc1c2c(c(F)c3c1CCC3)CCC2)NS(=O)(=O)c1cc2c(o1)C1CCC(C1)C2O (centres unmarked) [Compound 31, N-((8-fluoro-1,2,3,5,6,7-hexahydro-s-indacen-4-yl)carbamoyl)-4-hydroxy-5,6,7,8-tetrahydro-4H-5,8-methanocyclohepta[b]furan-2-sulfonamide] | < 100
4 | CC(C)c1cc(F)cc(C(C)C)c1NC(=O)NS(=O)(=O)c1cc2c(o1)C1CCC(C1)C2(C)O (centres unmarked) [Compound 28, N-((4-fluoro-2,6-diisopropylphenyl)carbamoyl)-4-hydroxy-4-methyl-5,6,7,8-tetrahydro-4H-5,8-methanocyclohepta[b]furan-2-sulfonamide] | 100 to 1000
5 | CC(C)c1ccc(F)c(C(C)C)c1NC(=O)NS(=O)(=O)c1cc2c(o1)C1CCC(C1)C2(C)O (centres unmarked) [Compound 36, N-((3-fluoro-2,6-diisopropylphenyl)carbamoyl)-4-hydroxy-4-methyl-5,6,7,8-tetrahydro-4H-5,8-methanocyclohepta[b]furan-2-sulfonamide] | < 100
6 | CC1(O)c2cc(S(=O)(=O)NC(=O)Nc3c4c(cc5c3CCC5)CCC4)oc2C2CCC1C2 (centres unmarked) [Compound 6, N-((1,2,3,5,6,7-hexahydro-s-indacen-4-yl)carbamoyl)-4-hydroxy-4-methyl-5,6,7,8-tetrahydro-4H-5,8-methanocyclohepta[b]furan-2-sulfonamide] | < 100
7 | CC(C)c1cccc(C(C)C)c1CC(=O)NS(=O)(=O)c1cc2c(o1)C1CCC(C1)C2O (centres unmarked) [Compound 15, 2-(2,6-diisopropylphenyl)-N-((4-hydroxy-5,6,7,8-tetrahydro-4H-5,8-methanocyclohepta[b]furan-2-yl)sulfonyl)acetamide] | 1000 to 10000
8 | O=C(Nc1c2c(cc3c1CCC3)CCC2)NS(=O)(=O)c1ccc2c(c1)/C(=N\O)C1CCC2CC1 [Compound 35, (Z)-N-((1,2,3,5,6,7-hexahydro-s-indacen-4-yl)carbamoyl)-9-(hydroxyimino)-6,7,8,9-tetrahydro-5H-5,8-ethanobenzo[7]annulene-2-sulfonamide] | 100 to 1000
9 | CC(C)c1ccc(Cl)c(C(C)C)c1NC(=O)NS(=O)(=O)c1cc2c(o1)C1CCC(C1)C2(C)O (centres unmarked) [Compound 26, N-((3-chloro-2,6-diisopropylphenyl)carbamoyl)-4-hydroxy-4-methyl-5,6,7,8-tetrahydro-4H-5,8-methanocyclohepta[b]furan-2-sulfonamide] | 100 to 1000

Next, values leading:

Row | IC50 [nM] | Compound
10 | < 100 | O=C(Nc1c2c(cc3c1CCC3)CCC2)NS(=O)(=O)c1cc2c(o1)C1CCC(CC1)C2=O [Compound 23, N-((1,2,3,5,6,7-hexahydro-s-indacen-4-yl)carbamoyl)-4-oxo-5,6,7,8-tetrahydro-4H-5,8-ethanocyclohepta[b]furan-2-sulfonamide]
11 | 100 to 1000 | O=C(Nc1c2c(cc3c1CCC3)CCC2)NS(=O)(=O)c1ccc2c(c1)C(O)C1CCC2CC1 (centres unmarked) [Compound 33, N-((1,2,3,5,6,7-hexahydro-s-indacen-4-yl)carbamoyl)-9-hydroxy-6,7,8,9-tetrahydro-5H-5,8-ethanobenzo[7]annulene-2-sulfonamide]
12 | < 100 | O=C(Nc1c2c(cc3c1CCC3)CCC2)NS(=O)(=O)c1cc2c(o1)C1CCC(CC1)C2=NO [Compound 24, N-((1,2,3,5,6,7-hexahydro-s-indacen-4-yl)carbamoyl)-4-(hydroxyimino)-5,6,7,8-tetrahydro-4H-5,8-ethanocyclohepta[b]furan-2-sulfonamide]
13 | < 100 | O=C(Nc1c2c(cc3c1CCC3)CCC2)NS(=O)(=O)c1cc2c(o1)C1CCC(C1)C2O (centres unmarked) [Compound 9, N-((1,2,3,5,6,7-hexahydro-s-indacen-4-yl)carbamoyl)-4-hydroxy-5,6,7,8-tetrahydro-4H-5,8-methanocyclohepta[b]furan-2-sulfonamide]
14 | < 100 | O=C(Nc1c2c(cc3c1CCC3)CCC2)NS(=O)(=O)c1cc2c(o1)C1CCC(CC1)C2O (centres unmarked) [Compound 22, N-((1,2,3,5,6,7-hexahydro-s-indacen-4-yl)carbamoyl)-4-hydroxy-5,6,7,8-tetrahydro-4H-5,8-ethanocyclohepta[b]furan-2-sulfonamide]
